# Columns and labels:
# Type in all cases: cell-based
# [1] = tested on: BRD4, BRD3 and c-MYC in RS4-11; assay: Immunoblot (protein level) in RS4-11; conditions: RS4-11, 500 nM
# Procedure: (§1) FIGS. 43A-43L illustrate effects of OTX015 at the protein level for BRD 4, BRD2 and BRD 3 as well as c-MYC. […] AML cell lines HL60, K562 (FIGS. 43A-43C; FIG. 43D-43F) and ALL cell lines Jurkat and RS4-11 (FIG. 43G-43I; FIG. 4JD-43L) were treated with OTX015 at 500 nM and compared to controls exposed to according DMSO. At indicated time-points proteins were extracted and immunoblotted with BRD4, BRD3, BRD2 or c-MYC antibodies after gel electrophoresis. […] One representative experiment out of three is shown.
# (§2) The membranes were blocked with LiCor blocking buffer (LiCor, Lincoln, Nebr., USA) and incubated with the respective primary antibody: anti-BRD4 (Epitomics 5716-1, Burlingame, USA), anti-BRD3 (ab56342, AbCam, UK), anti-BRD2 (ab37633, AbCam, UK), anti c-MYC (sc-764 (N262), Santa Cruz, USA) and anti-GAPDH (Invitrogen 398600, Grand Island, USA). Blots were stained with either goat anti-rabbit InfraRedDye 680RD or goat anti-mouse InfraRedDye 800CWsecondary antibody (LiCor). Membranes were imaged using a LiCor Odyssey scanner. Boxes were manually placed around each band of interest, which returned near-infrared fluorescent values of raw intensity with intra-lane background subtracted using Odyssey 3.0 analytical software (LiCor).
# [2] = tested on: BRD2, BRD3, BRD4 and c-MYC; assay: Immunoblot of BRD proteins and c-MYC in leukemia cell lines; conditions: different leukemia cell lines, 100 nM, within 3 hours
# c-MYC in Jurkat = assay: Immunoblot (protein level) in Jurkat; conditions: 500 nM, 48 h and 72 h
# Procedure: as §1, §2
# [3] = tested on: ALL cell lines (Jurkat, RS 4-11, TOM-1) and AML cell lines (HL60, K562, KG1 and KG1a); assay: Apoptosis assessment, statements over the ALL and AML cell lines
# Procedure: (§3) a total of 1×10^6 cellsderived from patients or cell lines were resuspended in 1 mL culture medium and incubated with the indicated dosages of OTX015 prepared freshly from 1 mM stock solution in DMSO. Control cells were incubated with the corresponding amount of dimethyl sulfoxide (DMSO 0.2-1%) to exclude toxicity of the excipient. Apoptotic cells were detected by cytofluorometric analysis using a FACScan (Becton Dickinson, Mountain View, USA). Cells were stained with propidium iodide (PI; 5 μg/mL; Becton Dickinson) and concomitantly for 15 minutes at RT with annexin-V-FITC (Becton Dickinson) according to the manufacturer's instructions to determine outer membrane phosphatidyl serine exposure. Data were analyzed with the Flowjo (Tree Star Inc., Ashland, USA) flow cytometry software.
# Compound (1-1) induced apoptosis in three ALL cell lines (Jurkat, RS 4-11, TOM-1) and four AML cell lines (HL60, K562, KG1 and KG1a) that were treated with different doses of the drug as detected by outer membrane phosphatidylserine exposure and propidium iodide incorporation at different time points (FIGS. 13A-13C and FIGS. 14A-14D). […] In all other cell lines, 50% of cells became apoptotic within 12 to 24 hours after treatment with 100 nM of Compound (1-1).
# CD34− cord blood cells = assay: Apoptosis in primary cells; conditions: CD34− cord blood cells of healthy controls, 24 hours
# Procedure: as §3
# (§4) The efficacy of Compound (1-1) to induce apoptosis in primary cells was investigated. CD34+ and CD34− cells were obtained by positive selection with CD34+ microbeads from cord blood (healthy controls) and one AML patient.
# CD34+ cord blood cells = assay: Apoptosis in primary cells; conditions: CD34+ cord blood cells of healthy controls, 500 nM, 24 hours
# Procedure: as §3, §4
# [4] = tested on: CD34+ and CD34− AML cells; assay: Apoptosis in primary cells; conditions: CD34+ and CD34− cells of one AML patient, 24 hours
# Procedure: as §3, §4
# [5] = tested on: primary AML patient samples; assay: Apoptosis in primary patient cells treated ex vivo; conditions: 5 AML patient samples ex vivo, 72 h, 250 and 500 nM
# Procedure: (§5) FIGS. 44A-44D show effects of OTX015 on primary patient cells. 5 samples from AML patients and 2 ALL, including 1 ALL Ph+ patient, were treated ex vivo with OTX015. OTX015 induced apoptosis in primary AML patient samples at various degrees ranging from 35-85% (FIG. 6). The Ph+ALL patient appeared to be resistant. OTX015 induced apoptosis in primary cells of the AML and ALL patients. Mononuclear cells were obtained from bone marrow (BM) or peripheral blood (PB) from AML and ALL patients. Cells were exposed 72 h with 250 and 500 nM of OTX015 and apoptosis was assessed by annexin V and PI staining. Results are shown with means±SD from duplicates of one experiment.
# (§6) Mononuclear cells (MNC) from the bone marrow (BM) were isolated by Ficoll-Paque PLUS density gradient (Amersham Biosciences, Sunnyvale, USA). Patient cells were maintained in IMDM (Gibco) supplemented with 10% heat-inactivated fetal calf serum, 2 mM L-glutamine, 100 IU/mL penicillin, and 100 µg/mL streptomycin without growth factors.
# (§7) a total of 1×10^6 cellsderived from patients or cell lines were resuspended in 1 mL culture medium and incubated with the indicated dosages of OTX015 prepared freshly from 1 mM stock solution in DMSO. […] Apoptotic cells were detected by cytofluorometric analysis using a FACScan (Becton Dickinson, Mountain View, USA). […] Data were analyzed with the Flowjo (Tree Star Inc., Ashland, USA) flow cytometry software. […]
# Ph+ALL patient cells = assay: Apoptosis in primary patient cells treated ex vivo; conditions: 1 Ph+ ALL patient sample ex vivo, 72 h, 250 and 500 nM
# Procedure: as §5, §6, §7
# BRD4, BRD2 and BRD3 = assay: RQ-PCR of BRD4, BRD2 and BRD3 in leukemia cell lines; conditions: 250 nM and 500 nM, 48 h
# Procedure: The total RNA obtained after extraction with TRIZOL (Invitrogen, Grand Island, USA) were titrated to 1 μg/uL and stored at −80° C. The complementary DNA (cDNA) was synthesized from 1 μg RNA. The RQ-PCR reactions (BRD2, BRD3, BRD4, c-MYC and ABL) were performed in a volume of 25 ul from a tenth of the cDNA (equivalent to 100 ng of RNA) on a thermocycler ABI7900HT in standard mode (1 cycle of 2 minutes at 50° C.-10 minutes at 95° C. followed by 50 cycles of 15 seconds at 95° C.-1 minute at 60° C.).
smiles,measurement,setting,value
"Cc1sc2c(c1C)C(c1ccc(Cl)cc1)=N[C@@H](CC(=O)Nc1ccc(O)cc1)c1nnc(C)n1-2 [Compound (1-1), 2-[(6S)-4-(4-chlorophenyl)-2,3,9-trimethyl-6H-thienol[3,2-f]-[1,2,4]triazolo[4,3-a][1,4]diazepin-6-yl]-N-(4-hydroxyphenyl)acetamide dihydrate]","BRD4, BRD3 and c-MYC protein level",[1],remained unaffected
same,"regulation of BRD2, BRD3, BRD4 and c-MYC at the protein level",[2],"rapid down-regulation of BRD2, BRD3 and BRD4 associated with c-MYC down-regulation"
same,c-MYC protein level,c-MYC in Jurkat,c-MYC downregulation
same,percentage of apoptotic cells,"[3]; 100 nM, within 12 to 24 hours, all cell lines other than K562 and KG1a",50%
same,"induction of apoptosis, dose dependence","[3]; 72 h, KG1a, NOMO1, RS4-11, BV-173, Jurkat, TOM-1",dose-dependent manner
same,induction of apoptosis,[3]; different doses and time points,induced apoptosis in all cell lines tested but to a lesser extent in K562 and KG1a cells
same,toxicity (apoptosis) for mature cord blood compartment,CD34− cord blood cells,remained unaffected
same,toxicity (apoptosis) for immature cord blood cells,CD34+ cord blood cells,toxicity for immature CD34+ cells at the 500 nM dose level
same,in vitro induction of apoptosis,[4],induction of apoptosis in a dose dependent manner
same,apoptosis,[5],35-85%
same,sensitivity to apoptosis induction,Ph+ALL patient cells,resistant
same,"down regulation of BRD4, BRD2 or BRD3 at the cDNA level","BRD4, BRD2 and BRD3",not able to detect a consistent down regulation
same,upregulation of BRD3 and BRD2 at the cDNA level,"BRD4, BRD2 and BRD3","significant upregulation of BRD3 and BRD2 in KG1, K562 and Jurkat and increase of BRD2 in KG1 and HL60"
